Structures are written as SMILES. “And” between values parts separate entries of the source, which are not always exact repeats. Equal values may be shown once. Read-outs that look alike come from different tables or passages of the source.

Data on seven compounds can be found in patent US6933320B2, “Combination comprising combretastatin and anticancer agents” (priority 2001, dated 2005).

For one series, the system named is MA13/C. Type of series: in vivo. Here is the method: This efficacy may be quantified, for example by the log10 cell kill, which is determined by the following formula: log10 cells killed=T-C(days)/3.32×Td in which T-C represents the time taken for the cells to grow, which is the mean time in days for the tumors of the treated group (T) to reach a predetermined value (1 g for example) and the tumors of the control group (C) to reach the same value, and Td represents the time in days needed for the volume of the tumors in the control group to double. (T. H. Corbett et al., Cancer, 40, 2660.2680 (1977); F. M. Schabel et al., Cancer Drug Development, Part B, Methods in Cancer Research, 17, 3-51, New York, Academic Press Inc. (1979)). A product is considered to be active if the log10 cell kill is greater than or equal to 0.7. A product is considered to be very active if the log10 cell kill is greater than 2.8.
(§1) The efficacy of the combinations on solid tumors were determined experimentally in the following manner:
(§2) The animals subjected to the experiment, generally mice, were subcutaneously grafted bilaterally with 30 to 60 mg of a tumor fragment on day 0. The animals bearing tumors were mixed before being subjected to the various treatments and controls. In the case of treatment of advanced tumors, tumors were allowed to develop to the desired size, and animals having insufficiently developed tumors were eliminated. The selected animals were distributed at random to undergo the treatments and controls. Animals not bearing tumors were also subjected to the same treatments as the tumor-bearing animals in order to be able to dissociate the toxic effect from the specific effect on the tumor. Chemotherapy generally began from 3 to 22 days after grafting, depending on the type of tumor, and the animals were observed every day. The different animal groups were weighed 3 or 4 times a week until the maximum weight loss was attained, and the groups were then weighed at least once a week until the end of the trial.
(§3) The tumors were measured 2 or 3 times a week until the tumor reached approximately 2 g, or until the animal died if this occurred before the tumor reached 2 g. The animals were autopsied when sacrificed.
(§4) The antitumor activity was determined in accordance with different parameters which were recorded such as dose (mg/kg), mode of administration, time of administration, cytotoxicity, toxicity and log cell kill.
In this and the following examples, RPR 258062A corresponds to the hydrochloride salt of compound IIa. The agents were administered intravenously unless otherwise specified.

Another series concerns C51. Kind of series: In vivo evaluation on subcutaneously grafted solid tumor C51. As for the experimental part:
A product is considered to be active if the log10 cell kill is greater than or equal to 0.7. A product is considered to be very active if the log10 cell kill is greater than 2.8.
as §1
as §2, with “Animals not bearing tumors were also subjected to the same treatments as the tumor-bearing animals in order to be able to dissociate the toxic effect from the specific effect on the tumor. Chemotherapy generally began from 3 to 22 days after grafting, depending on the type of tumor, and the animals were observed every day.” left out
as §3, §4
The agents were administered intravenously unless otherwise specified.

Series [1] can be described thus: Solubility in water (statement). The class given is physicochemical. The following applies: statement in words, no method given.
Setting [2] is: MA13/C tumor, single agent at HNTD, i.v., docetaxel days 17, 24 (* evaluated on mice that developed tumor), RPR 258062A days 17, 24 (2x/d).
Where [3] appears, read: MA13/C tumor, single agent at HNTD, i.v., docetaxel days 17, 24, RPR 258062A days 17, 24 (2x/d).
The mark [4] stands for this setting: sequential combination CPT-11 oral 400 mg/kg days 13-16 + RPR 258062A 36 mg/kg day 17.
Where [5] appears, read: single agent at HNTD, RPR 258062A i.v. days 13-17 (2x/d), CPT-11 oral days 14-17.
[6] abbreviates: MA13/C tumor, single agent at HNTD, i.v., schedule days 15, 22 (doxorubicin study).
[7] abbreviates: MA13/C tumor, single agent at HNTD, i.v., schedule days 15, 25 (vinorelbine study).
Where [8] appears, read: MA13/C tumor, sequential combination RPR 258062A 1st 75 mg/kg day 14 + vinorelbine 2nd 32 mg/kg days 15, 25, i.v.
Setting [9] is: sequential combination RPR 258062A 58 mg/kg day 14 + CDDP 10 mg/kg days 15, 19, i.v.
Setting [10] is: simultaneous combination RPR 258062A 1st 116 mg/kg days 12, 16 + CDDP 10 mg/kg days 12, 16, i.v.
Setting [11] is: single agent at HNTD, i.v., schedule days 12, 16.

`CC(=O)O[C@@]12CO[C@@H]1C[C@H](O)[C@@]1(C)C(=O)[C@H](O)C3=C(C)[C@@H](OC(=O)[C@H](O)[C@@H](NC(=O)OC(C)(C)C)c4ccccc4)C[C@@](O)([C@@H](OC(=O)c4ccccc4)[C@H]21)C3(C)C` [Docetaxel, docetaxel, reference compound]: in the series on MA13/C (setting [2]), the “LcK (log cell kill)” value is on record as 3.2*. In the series on MA13/C (setting [3]), the “RR CR (complete response)” value is recorded as 4/6, the “RR PR (partial response)” value was 6/6, the “T-C (tumor growth delay)” value is 26.7 days and the “TFS (tumor free survivors)” value was 3/6. For the same compound, the “HNTD Dose (highest nontoxic dose)” value in the series on MA13/C (mouse, in vivo, iv) was determined as 68 mg/kg.

As to `CCc1c2c(nc3ccc(OC(=O)N4CCC(N5CCCCC5)CC4)cc13)-c1cc3c(c(=O)n1C2)COC(=O)[C@]3(O)CC` [CPT-11, reference compound], in the series on C51 (setting [4]), the “LcK (log cell kill)” value worked out at 1.9, the “RR CR (complete response)” value is 3/5, the “RR PR (partial response)” value is on record as 5/5 and the “T-C (tumor growth delay)” value was 15.1 days. Besides, in the series on C51 (setting [4]), the “TFS (tumor free survivors)” value is on record as 0/5. For the same compound, in the series on C51 (setting [5]), the “LcK (log cell kill)” value is given as 1.1, the “RR CR (complete response)” value is 0/5, the “RR PR (partial response)” value is 0/5 and the “T-C (tumor growth delay)” value was determined as 8.7 days. Moreover, the “TFS (tumor free survivors)” value in the series on C51 (setting [5]) is on record as 0/5.

For `COc1ccc(/C=C\c2cc(OC)c(OC)c(OC)c2)cc1NC(=O)C(N)CO` (centres unmarked) [IIa], the Solubility in water entry in series [1] is “soluble in water”.

With `COc1cccc2c1C(=O)c1c(O)c3c(c(O)c1C2=O)C[C@@](O)(C(=O)CO)C[C@@H]3O[C@H]1C[C@H](N)[C@H](O)[C@H](C)O1` [Doxorubicin, doxorubicin, reference compound], in the series on MA13/C (setting [6]), the “LcK (log cell kill)” value was found to be 4.5, the “RR CR (complete response)” value is 4/6, the “RR PR (partial response)” value is listed as 4/6 and the “T-C (tumor growth delay)” value was 53.5 days. In the series with MA13/C (setting [6]), the “TFS (tumor free survivors)” value is listed as 0/6. Moreover, the “HNTD Dose (highest nontoxic dose)” value with MA13/C (mouse, in vivo, iv) is on record as 17.4 mg/kg.

`CCC1=C[C@@H]2CN(C1)Cc1c([nH]c3ccccc13)[C@@](C(=O)OC)(c1cc3c(cc1OC)N(C)[C@H]1[C@@](O)(C(=O)OC)[C@H](OC(C)=O)[C@]4(CC)C=CCN5CC[C@]31[C@@H]54)C2` [Vinorelbine, vinorelbine, reference compound]: in the series with MA13/C (setting [7]), the “LcK (log cell kill)” value is on record as 4.6, the “RR CR (complete response)” value was 5/5, the “RR PR (partial response)” value is reported as 5/5 and the “T-C (tumor growth delay)” value came to 45.5 days. The “TFS (tumor free survivors)” value in the series on MA13/C (setting [7]) is 0/5. For the same compound, the “HNTD Dose (highest nontoxic dose)” value with MA13/C (mouse, in vivo, iv) was 19.8 mg/kg.

For the compound `COc1ccc(/C=C\c2cc(OC)c(OC)c(OC)c2)cc1NC(=O)C(N)CO` (centres unmarked) [RPR 258062A], the “RR CR (complete response)” value is given as 6/6 with MA13/C (MA13/C tumor, sequential combination RPR 258062A 150 mg/kg days 16, 23 (2x/d) + docetaxel 109.6 mg/kg days 17, 24, i.v.); 5/5 with MA13/C (setting [8]); 0/6 in the series on MA13/C (setting [6]); 0/5 in the series with MA13/C (setting [7]); 1/6 in the series on MA13/C (setting [3]); 7/7 in the series on MA13/C (mouse, in vivo). Besides, the “RR CR (complete response)” value is reported as 5/5 with C51 (setting [9]), 6/6 in the series on C51 (setting [10]), 0/5 with C51 (setting [5]) and 0/6 in the series with C51 (setting [11]). Besides, the “RR PR (partial response)” value is 5/5 in the series with MA13/C (setting [8]); 0/6 with MA13/C (setting [6]); 0/5 with MA13/C (setting [7]); 1/6 in the series on MA13/C (setting [3]); 6/6 and 7/7 in the series with MA13/C (mouse, in vivo); 5/5 in the series with C51 (setting [9]). For the same compound, the “RR PR (partial response)” value was 6/6 with C51 (setting [10]), 5/5 in the series on C51 (setting [5]) and 6/6 in the series with C51 (setting [11]). Moreover, the “T-C (tumor growth delay)” value is 84.7 days in the series on MA13/C (setting [8]); 30.2 days with MA13/C (setting [6]); 5 days with MA13/C (setting [7]); 10.8 days with MA13/C (setting [3]); 74.8 days and 80.6 days in the series on MA13/C (mouse, in vivo); 51 days in the series on C51 (setting [9]). The “T-C (tumor growth delay)” value in the series on C51 (setting [5]) turned out to be 10.3 days; with C51 (setting [11]) it was 10 days. Besides, the “HNTD Dose (highest nontoxic dose)” value with MA13/C (MA13/C tumor, sequential combination RPR 258062A 1st (day 14) + vinorelbine 2nd (days 15, 25), i.v., dose of each constituent) came to 75 mg/kg; in the series on MA13/C (MA13/C tumor, sequential combination RPR 258062A (days 15, 21) + doxorubicin (days 16, 22), i.v., dose of each constituent), 139.6 mg/kg; with MA13/C (MA13/C tumor, sequential combination RPR 258062A (days 16, 23, 2x/d) + docetaxel (days 17, 24), i.v., dose of each constituent) it was 150 mg/kg; in the series with MA13/C (MA13/C tumor, single agent, i.v., schedule days 15, 22 (doxorubicin study)) it was 186.0 mg/kg; in the series with MA13/C (MA13/C tumor, single agent, i.v., schedule days 15, 25 (vinorelbine study)) it was 150 mg/kg; in the series with MA13/C (MA13/C tumor, single agent, i.v., docetaxel days 17, 24, RPR 258062A days 17, 24 (2x/d)) it was 242 mg/kg. For the same compound, the “HNTD Dose (highest nontoxic dose)” value with C51 (sequential combination CPT-11 oral (days 13-16) + RPR 258062A i.v. (day 17), dose of each constituent) was 36 mg/kg; with C51 (sequential combination RPR 258062A (day 14) + CDDP (days 15, 19), i.v., dose of each constituent) it was 58 mg/kg; with C51 (simultaneous combination RPR 258062A 1st (days 12, 16) + CDDP (days 12, 16), i.v., dose of each constituent), 116 mg/kg; with C51 (single agent, RPR 258062A i.v. days 13-17 (2x/d), CPT-11 oral days 14-17), 116.5 mg/kg; in the series with C51 (single agent, i.v., schedule days 12, 16), 116 mg/kg. The “LcK (log cell kill)” value worked out at 1.3 in the series with MA13/C (setting [6]); 0.5 in the series on MA13/C (setting [7]); 1.3 in the series on MA13/C (setting [2]); 5.9 in the series on C51 (setting [9]); 1.3 in the series with C51 (setting [5]); 1.2 in the series on C51 (setting [11]). Besides, the “TFS (tumor free survivors)” value is 0/6 with MA13/C (setting [6]); 0/5 in the series with MA13/C (setting [7]); 0/6 in the series with MA13/C (setting [3]); 2/5 and 4/6 and 2/7 in the series with MA13/C (mouse, in vivo); 0/5 in the series on C51 (setting [9]); 6/6 in the series with C51 (setting [10]). Besides, the “TFS (tumor free survivors)” value in the series with C51 (setting [5]) is listed as 0/5; with C51 (setting [11]) it was 0/6.

For `N.N.[Cl][Pt][Cl]` [CDDP, cisplatinum, reference compound], in the series with C51 (setting [11]), the “LcK (log cell kill)” value is recorded as 1.9, the “RR CR (complete response)” value was 0/6, the “RR PR (partial response)” value was 5/6 and the “T-C (tumor growth delay)” value turned out to be 16.5 days. The “TFS (tumor free survivors)” value in the series on C51 (setting [11]) is recorded as 0/6.
